Laboratory results: PMC8696185, “Purification and Characterization of Plantaricin YKX and Assessment of Its Inhibitory Activity Against Alicyclobacillus spp” (Frontiers in Microbiology, 2021)
Bridges are numbered along the chain shown (N, C = ends). Where no end group is shown, it is not given here. [ ]: non-standard residue; d: D form. Dhb = C/C=C(\N)C(=O)O; Dha = C=C(N)C(=O)O

Assays:
[1] = system: E. coli CICC10302 as indicator stain; test: Effect of enzymes on antibacterial activity (stability); type: in vitro ADME, Escherichia coli; design: key to Antibacterial ability after Lipase, α-AMYLASE / Antibacterial ability after Trypsin, pepsin: Antimicrobial activity +: there is a clear inhibition zone.; Antimicrobial activity –: there is no inhibition zone; key to Antibacterial ability after Proteinase K, papain, α-chymotrypsin: −: Antimicrobial activity –: there is no inhibition zone; details: enzyme 1.0 mg/mL, 37°C for 30 min, agar well diffusion
Procedure: (§1) The effect of temperature (60, 80, or 100°C) on the activity of purified plantaricin YKX was analyzed within a certain time (10, 20, or 30 min) ([An et al., 2017]). The long-term stability was investigated at 37°C for […] and at 4°C for 3 months ([Yue et al., 2013]). The impact of pH on plantaricin YKX was analyzed by adjusting pH to 2–10 with 1 M HCl and 1 M NaOH solutions and determining residual activities after maintaining at 37°C for 2 h ([Yue et al., 2013]). The effect of enzymes on the antibacterial activity of plantaricin YKX was determined following incubation with enzymes lipase [pH 7.0, 10 mM phosphate-buffered saline (PBS)], α-amylase (pH 7.0, 10 mM PBS), trypsin (pH 7.5, 10 mM PBS), proteinase K (pH 7.5, 50 mM Tris-HCl), papain (pH 7.5, 10 mM PBS), and pepsin (pH 3.0, 0.1 M HCl) at 37°C for 30 min with their optimal pH and a final concentration of 1.0 mg/mL. The enzymes were inactivated by heating at 100°C for 5 min, and the pH was then adjusted to pH 6.0 ([Yue et al., 2013]). Plantaricin YKX without any treatments was employed as a control. Agar well diffusion assay was utilized to determine the antibacterial activity ([Pei et al., 2020]).

[2] = Heat, storage and pH stability (indicator not given); type: physicochemical
Procedure: as §1

[3] = system: Pseudomonas aeruginosa CICC 21636; test: Minimal inhibitory concentration (MIC); type: cell-based; details: twofold serial dilution, 96-well plate, 24 h at 30°C, OD600; highest conc. not given in μg/mL (stock 1,024 IU/mL)
Procedure: (§2) The minimal inhibitory concentration (MIC) of plantaricin YKX toward indicator strains was measured according to the [Clinical and Laboratory Standards Institute (2012)]. Indicator strains in the mid-logarithmic growth phase were adjusted to the OD600 of 0.5 and diluted 100-fold with appropriate media. First, the plantaricin YKX solution (1,024 IU/mL) was twofold serially diluted with distilled water. Next, 100 μL each indicator strain suspension and aliquots of plantaricin YKX solution were incubated [1:1 (v/v) ratio] in a 96-well plate for 24 h at 45°C with Alicyclobacillus spp. as indicator strain and at 30°C for other indicator strains listed in Table 1. The efficacy of nisin (> 90% pure, J & K Chemical Technology) was also determined. As a control, distilled water was added to the indicator strains suspensions. Following incubation, the MICs were determined by measuring the OD600 using a microplate reader (SpectraMax 190, Molecular Devices, CA, United States).

[4] = system: Aspergillus niger CICC 2124; test: Minimal inhibitory concentration (MIC); type: cell-based; details: twofold serial dilution, 96-well plate, 24 h at 30°C, OD600; highest conc. not given in μg/mL (stock 1,024 IU/mL)
Procedure: as §2

[5] = system: Enterobacter cloacae CICC 21539; test: Minimal inhibitory concentration (MIC); type: cell-based; details: twofold serial dilution, 96-well plate, 24 h at 30°C, OD600; highest conc. not given in μg/mL (stock 1,024 IU/mL)
Procedure: as §2

[6] = system: Salmonella paratyphi β CICC 10437; test: Minimal inhibitory concentration (MIC); type: cell-based; details: twofold serial dilution, 96-well plate, 24 h at 30°C, OD600; highest conc. not given in μg/mL (stock 1,024 IU/mL)
Procedure: as §2

[7] = system: Candida albicans CICC 1965; test: Minimal inhibitory concentration (MIC); type: cell-based; details: twofold serial dilution, 96-well plate, 24 h at 30°C, OD600; highest conc. not given in μg/mL (stock 1,024 IU/mL)
Procedure: as §2

[8] = system: Saccharomyces cerevisiae CICC 1002; test: Minimal inhibitory concentration (MIC); type: cell-based; details: twofold serial dilution, 96-well plate, 24 h at 30°C, OD600; highest conc. not given in μg/mL (stock 1,024 IU/mL)
Procedure: as §2

[9] = system: A. acidoterrestris DSM3922 as indicator stain; test: Effect of enzymes on antibacterial activity (stability); type: in vitro ADME, Alicyclobacillus acidoterrestris; design: key to Antibacterial ability after Lipase, α-AMYLASE / Antibacterial ability after Trypsin, pepsin: Antimicrobial activity +: there is a clear inhibition zone.; Antimicrobial activity –: there is no inhibition zone; key to Antibacterial ability after Proteinase K, papain, α-chymotrypsin: −: Antimicrobial activity –: there is no inhibition zone; details: enzyme 1.0 mg/mL, 37°C for 30 min, agar well diffusion
Procedure: as §1

[10] = system: luxS gene of A. acidoterrestris; test: RT-qPCR, transcription of luxS; type: cell-based, Alicyclobacillus acidoterrestris; details: co-cultured at 0.5 × MIC, 0.7 × MIC, and 0.9 × MIC, overnight incubation
Procedure: To verify the effect of plantaricin YKX on the QS system, Real-Time Quantitative PCR (RT-qPCR) was used to detect the transcription level changes of the gene (luxS) encoding a QS signal (Al-2) synthesis enzyme (LuxS) in A. acidoterrestris. The mid-logarithmic phase cells of A. acidoterrestris were treated with plantaricin YKX at 0.5 ×, 0.7 ×, or 0.9 × MIC. After overnight incubation, RNA was extracted according to the Trizol method.
The reverse transcription reaction system (10 μL) contained: Total RNA 2 μL; dNTP 0.5 μL; Random primers 0.5 μL; and distilled water without RNAase 4 μL. All samples were maintained at 70°C for 5 min and then kept immediately in an ice bath. 5X reverse transcription buffer 2 μL, RNAase inhibitor 0.5 μL, and MMLV reverse transcription enzyme 0.5 μL were added immediately. Thus, the reverse transcription conditions were: 30°C for 10 min, 42°C for 1 h, 70°C for 15 min, and 4°C forever. After the reverse transcription reaction, the DNA templates were diluted 5 times and stored at −20°C until used.
PCR reaction included: upstream primer (10 μM) 0.2 μL, downstream primer (10 μM) 0.2 μL, 2 × Ultra SYBR Mixture 5 μL, ddH2O 3.6 μL, DNA templates 1 μL. The PCR reaction parameters were: 95°C for 10 min, 95°C for 15 s, 60°C for 1 min, 40 cycles. Primers (5′-[…]-3′; 5′-[…]-3′) were designed according to the gene sequence of luxS by the Primer 5.0 software.

[11] = system: A. acidoterrestris DSM3922 endospores; test: Endospore germination, microscopic counting; type: cell-based, Alicyclobacillus acidoterrestris; details: 2 h post-germination treatment, untreated 43.6%
[12] = system: A. acidoterrestris DSM3922; test: Guaiacol production, HPLC; type: cell-based, Alicyclobacillus acidoterrestris; details: AAM broth, 45°C, HPLC 275 nm, control 20.6 μg/L
Procedure: A. acidoterrestris DSM3922 was inoculated in AAM broth containing plantaricin YKX at 0.5 ×, 0.7 × or 0.9 × MIC (control without plantaricin YKX) and cultured at 45°C. Samples were tested for OD600 after 24 h. After the samples were centrifuged at 8,000 g at 4°C and passed through 0.22 μm filter membrane, the guaiacol content was determined with an analytical HPLC dual pump Shimadzu LC-20 AB system equipped with UltimateXB-C18 column (4.6 × 250 mm, particle size 5 μm, Kyoto, Japan) ([Lin et al., 2006]). The mobile phase was 30% (v/v) acetonitrile in 0.1% (v/v) formic acid. The column temperature was maintained at 40°C. The mobile phase flow rate was set at 1 mL/min. The detection wavelength was 275 nm.

[13] = system: E. coli CICC10302 as indicator stain; test: Heat, storage and pH stability, residual antibacterial activity; type: physicochemical, Escherichia coli; design: key to Antibacterial ability after pH 2–7 / Antibacterial ability after 60, 80, and 100°C / Antibacterial ability after 37°C for 14 d / Antibacterial ability after 2 months at 4°C: Antimicrobial activity +: there is a clear inhibition zone.; Antimicrobial activity –: there is no inhibition zone; key to Antibacterial ability after pH 9–10: −: Antimicrobial activity –: there is no inhibition zone; details: agar well diffusion
Procedure: as §1

[14] = system: A. acidoterrestris DSM3922 cells; test: Flow cytometry, propidium iodide uptake (membrane integrity); type: cell-based, Alicyclobacillus acidoterrestris; details: 2 × MIC, incubation for 30 min, 45°C, propidium iodide 10 μg/mL
Procedure: Log phase A. acidoterrestris DSM3922 cells were incubated with plantaricin YKX at 0.5×, 1×, or 2× MIC (control: cells treated with PBS) at 45°C for 15 min. Next, they were centrifuged, rinsed, and treated with propidium iodide (10 μg/mL) for 15 min at 45°C ([Gut et al., 2011]). After removing the unbound stain, the fluorescence intensities were analyzed by an AccuriC6 flow cytometer (BD Biosciences, MI, United States). Forty thousand events were acquired per sample and detected at excitation (488 nm) and emission wavelengths (525 nm).

[15] = system: Clostridium butyricum CICC 10350; details: CICC 10350, 24 h
[16] = system: A. acidoterrestris DSM3922 as indicator stain; test: Heat, storage and pH stability, residual antibacterial activity; type: physicochemical, Alicyclobacillus acidoterrestris; design: key to Antibacterial ability after pH 2–7 / Antibacterial ability after 60, 80, and 100°C / Antibacterial ability after 37°C for 14 d / Antibacterial ability after 2 months at 4°C: Antimicrobial activity +: there is a clear inhibition zone.; Antimicrobial activity –: there is no inhibition zone; key to Antibacterial ability after pH 9–10: −: Antimicrobial activity –: there is no inhibition zone; details: agar well diffusion
Procedure: as §1

[17] = system: A. acidoterrestris ATCC 3922; test: Kill kinetics (time-killing curves); type: cell-based, Alicyclobacillus acidoterrestris; details: for Time within which all cells were inactivated: at the MICs (1 × MIC)
Text: FIGURE 3 Antibacterial activity of plantaricin YKX against A. acidoterrestris.

Alicyclobacillus spp. = details: literature value; ref Yamazaki et al., 2000; cited from earlier work
Procedure: On the other hand, the MICs of plantaricin YKX and nisin inactivated all cells within 180 min.

[18] = optimal pH (proteinase K pH 7.5 Tris-HCl, papain pH 7.5 PBS)
[19] = pH 7.0, 10 mM PBS, enzyme inactivated 100°C 5 min, pH adjusted to 6.0
[20] = trypsin pH 7.5 10 mM PBS, pepsin pH 3.0 0.1 M HCl
[21] = pH adjusted with 1 M HCl / 1 M NaOH, 37°C for 2 h

For KYGNGLSRIFSALK [plantaricin YKX], the “Antibacterial ability after Proteinase K, papain, α-chymotrypsin” value [1, 18] was “–”, the “Antibacterial ability after Lipase, α-AMYLASE” value [1, 19] was “+” and the “Antibacterial ability after Trypsin, pepsin” value [1, 20] was “+”. The “Antibacterial activity after storage” value ([2]; 3 months at 4°C, agar well diffusion) was “did not alter its antibacterial activity”, the “pH at which the activity was lost” value ([2]; 37°C for 2 h at adjusted pH, residual activity by agar well diffusion) was 9.0 and the “Antibacterial activity after storage” value ([2]; 37°C for up to 14 days, agar well diffusion) was “did not alter its antibacterial activity”. The “pH range in which active (abstract)” value ([2]; as stated in the abstract) was 3–8, the “Heat stability, activity after heating” value ([2]; heating at 60, 80, or 100°C (10, 20, or 30 min), agar well diffusion) was “retaining activity” and the MICs [3] was “> highest conc. tested”. For the same substance, the MICs [4] was “> highest conc. tested”, the MICs [5] was “> highest conc. tested” and the MICs [6] was “> highest conc. tested”. For the same substance, the MICs [7] was “> highest conc. tested”, the MICs [8] was “> highest conc. tested” and the “Antibacterial ability after Proteinase K, papain, α-chymotrypsin” value [9, 18] was “–”. The “Antibacterial ability after Lipase, α-AMYLASE” value [9, 19] was “+”, the “Antibacterial ability after Trypsin, pepsin” value [9, 20] was “+” and the “Expression of the luxS gene” value [10] was “increased significantly”. The “Germination rate of spores” value ([11]; 0.5 × MIC) was 55.4%, the “Germination rate of spores” value ([11]; 0.7 × MIC) was 70.5% and the “Germination rate of spores” value ([11]; 0.9 × MIC) was 81.7%. The Production of guaiacol ([12]; 0.5 × MIC) was 16.8 µg/L, the Production of guaiacol ([12]; 0.7 × MIC) was 10.1 µg/L and the Production of guaiacol ([12]; 0.9 × MIC) was 8.9 µg/L. The “Antibacterial ability after 60, 80, and 100°C” value ([13]; heated for 10, 20, or 30 min) was “+”, the “Antibacterial ability after 2 months at 4°C” value ([13]; long-term storage) was “+” and the “Antibacterial ability after 37°C for 14 d” value ([13]; long-term storage) was “+”. For the same substance, the “Antibacterial ability after pH 2–7” value [13, 21] was “+”, the “Antibacterial ability after pH 9–10” value [13, 21] was “–” and the “Proportion of PI-stained cells” value [14] was 91.6%. The MICs [15] was 32 µg/mL, the “Antibacterial ability after 60, 80, and 100°C” value ([16]; heated for 10, 20, or 30 min) was “+” and the “Antibacterial ability after 2 months at 4°C” value ([16]; long-term storage) was “+”. The “Antibacterial ability after 37°C for 14 d” value ([16]; long-term storage) was “+”, the “Antibacterial ability after pH 2–7” value [16, 21] was “+” and the “Antibacterial ability after pH 9–10” value [16, 21] was “–”. For the same substance, the “Time within which the number of cells was substantially decreased” value ([17]; 2 MIC) was ≤ 30 min and the “Time within which all cells were inactivated” value [17] was ≤ 180 min.

In the case of “nisin: typical class I (lanthionine-based) bacteriocin, > 90% pure, J & K Chemical Technology (I[Dhb]SI[Dha]LCTPGCKTGALMGCNMKTATCHCSIHV[Dha]K; bridge 23-26, 13-19, 8-11, 25-28, 3-7; not fully specified (residues 3, 8, 13, 23, 25, bridges); UniProt P13068 24-57, looked up) [reference compound]”, the MIC (Alicyclobacillus spp.) is listed as 16 to 32 µg/mL, the “Expression of the luxS gene” value [10] is listed as “did not show a similar function” and the “Time within which all cells were inactivated” value [17] is listed as ≤ 180 min.
